Data as given in US10473645B2, “Methods for identifying a receptor for a ligand and uses thereof” (UNIVERSITE DE GENEVE, priority 2014, dated 2019).

Assays:
Olfr609 [1] = test: OR transcript level by RT-qPCR after in vivo odorant exposure; design: species or system mouse; conditions: 5% odorant, 5 hours
Experimental: (§1) In vivo exposure to odorant: Starting 48 h before experiments, mice were habituated to pure DMSO on a cotton ball. 200 μl were pipetted directly onto the cotton and placed in the cage, replacing any cotton that was already in the cage for nest-making purposes.
(§2) On the day of the experiment, mice receiving odorants were transferred to a different room, where they were exposed to a cotton ball on which 200 μl of odorant diluted in pure DMSO were deposited. Exposures started in the morning between 8 and 10 am (that is two hours after lights were on) and mice were killed and dissected between 1 and 3 pm. […] If a number of different odorants were tested in the same experiment, a different overpressurized room would always be used for each odorant to avoid odor cross-contamination.
(§3) After odorant exposure, mice were killed by cervical dislocation and immediately decapitated. […]
(§4) RNA concentrations were determined using an Amersham Ultrospec® 3100 Pro spectrophotometer, and RNA quality was evaluated with an Agilent Technologies 2100 Bioanalyzer®. […]
(§5) qPCR Ct values were analyzed using an in-house developed Microsoft Excel® macro file. […] Ct values were converted to quantities relative to the maximum for each given gene. Selected reference genes were then analyzed for variance using the geNorm algorithm. […]

Olfr609 [2] = conditions: HEK cells; previously shown; read-out: EC50 as agonist of Olfr609; cited from earlier work
Olfr2 [3] = biological target: T1, Olfr2 (Mus musculus, UniProt Q9QWU6); conditions: HEK cells; previously shown; read-out: EC50 as agonist of Olfr2; cited from earlier work
T1 construct: host or cells: HEK cells

Olfr2 [4] = biological target: T1, Olfr2; test: OR transcript level by RT-qPCR after in vivo odorant exposure; conditions: 5% odorant, 5 hours
Experimental: as §1, §2, §3, §4, §5

Olfr16 [5] = biological target: T2, Olfr16 (Mus musculus, UniProt Q62007); design: host or cells: dissociated neurons; conditions: dissociated neurons; previously shown; read-out: EC50 as agonist of Olfr16; cited from earlier work
Olfr16 [6] = biological target: T2, Olfr16; test: OR transcript level by RT-qPCR after in vivo odorant exposure; design: from tissue; host or cells: main olfactory epithelium of exposed mice; conditions: 5% odorant, 5 hours
Experimental: as §1, §2, §3, §4, §5

TAAR3 [7] = biological target: T3, TAAR3 (Mus musculus, UniProt Q5QD16); conditions: Zhang et al, 2013; cited from earlier work
TAAR4 [8] = biological target: T4, TAAR4 (Mus musculus, UniProt Q5QD15); conditions: Zhang et al, 2013; cited from earlier work
T4 construct: from tissue; host or cells: main olfactory epithelium of living mice

TAAR6 = biological target: T5, TAAR6 (Mus musculus, UniProt Q5QD13); test: TAAR transcript level by RT-qPCR after in vivo exposure; conditions: olfactory stimulation during 48 hours
T5 construct: from tissue; host or cells: main olfactory epithelium of living mice
Experimental: as §1, §2
(§6) After odorant exposure, mice were killed by cervical dislocation and immediately decapitated. The main olfactory epithelia (MOE), were harvested in their entirety and transferred to a tube containing 600 μl of lysis buffer and β-mercaptoethanol (RNAeasy kit, Qiagen, following the manufacturer protocol) and a 0.5 cm diameter steel ball, and then put on ice. Samples were then homogenized using a FastPrep®-24 instrument (MP Biomedicals) at 6 m/s for 30 s and left on ice. […]
as §4, §5
(§7) Transcript levels of olfactory receptor gene were evaluated following olfactory stimulation during 48 hours by beta-phenylethylamine. Olfactory receptor gene transcript levels were evaluated by RT-qPCR for each receptor gene, and the ratios between the values obtained in exposed versus control mice are shown in FIG. 6. […]

TAAR4 [9] = biological target: T4, TAAR4; test: as above; conditions: olfactory stimulation during 48 hours
Experimental: as §1, §2, §6, §4, §5, §7

TAAR3 [10] = biological target: T3, TAAR3; test: as above; conditions: olfactory stimulation during 48 hours
Experimental: as §1, §2, §6, §4, §5, §7

Olfr556 = biological target: T6, Olfr556 (Mus musculus, UniProt B2RRG2); test: OR transcript level by RT-qPCR after in vivo odorant exposure; design: from tissue; host or cells: main olfactory epithelium of exposed mice; conditions: olfactory stimulation during 48 hours, RT-qPCR
T6 sequence (B2RRG2 1-324): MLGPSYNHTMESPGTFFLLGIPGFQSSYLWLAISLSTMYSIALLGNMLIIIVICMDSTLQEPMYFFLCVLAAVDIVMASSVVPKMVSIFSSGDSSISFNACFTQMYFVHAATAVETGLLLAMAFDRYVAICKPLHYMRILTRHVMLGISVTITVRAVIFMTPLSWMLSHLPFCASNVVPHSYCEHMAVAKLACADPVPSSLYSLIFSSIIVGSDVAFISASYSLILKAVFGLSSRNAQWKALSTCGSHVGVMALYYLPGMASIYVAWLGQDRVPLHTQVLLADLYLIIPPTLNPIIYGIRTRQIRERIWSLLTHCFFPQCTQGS
Experimental: as §1
as §2, with “Exposures started in the morning between 8 and 10 am (that is two hours after lights were on) and mice were killed and dissected between 1 and 3 pm.” left out
After odorant exposure, mice were killed by cervical dislocation and immediately decapitated. The main olfactory epithelia (MOE), were harvested in their entirety and transferred to a tube containing 600 μl of lysis buffer and β-mercaptoethanol (RNAeasy kit, Qiagen, following the manufacturer protocol) and a 0.5 cm diameter steel ball, and then put on ice. Samples were then homogenized using a FastPrep®-24 instrument (MP Biomedicals) at 6 m/s for 30 s and left on ice. RNA extraction was performed on all samples in parallel using the Qiagen RNeasy Mini® kit following the manufacturer's instructions. Two DNase treatments were performed on all samples: first using the Qiagen RNase-Free DNase Set® and then using the Life Technologies Ambion DNase I® kit. RNA samples were then aliquoted and stored at −80° C.
RNA concentrations were determined using an Amersham Ultrospec® 3100 Pro spectrophotometer, and RNA quality was evaluated with an Agilent Technologies 2100 Bioanalyzer®. Each reverse transcription was performed with 0.5 μg RNA using the Takara Primescript® kit, in a final volume of 10 μl. Primers for reverse transcription were equal mixtures of poly-T nucleotides and random hexamers. Negative controls (omitting the reverse transcriptase enzyme) were performed for each sample. 1/14th of the cDNA preparation was used for each triplicated qPCR reaction.
qPCR Ct values were analyzed using an in-house developed Microsoft Excel® macro file. Triplicate values were compared and outliers (values with a difference higher than 0.5 Ct to their nearest neighbor) were discarded. The number of conditions with an outlying value was always less than 10% of the total number of conditions. Ct values were converted to quantities relative to the maximum for each given gene. Selected reference genes were then analyzed for variance using the geNorm algorithm. All values were normalized with the olfactory tissue-specific genes Omp and Adcy3. β-Actin was used as a non-tissue-specific reference gene to control for differences in dissection between samples. […]

Olfr171 [11] = test: as above; design: species or system mouse; conditions: 5% odorant for 5 hours, sensory neuroepithelium, n=7 mice
Experimental: as §1
(§8) On the day of the experiment, mice receiving odorants were transferred to a different room, where they were exposed to a cotton ball on which 200 μl of odorant diluted in pure DMSO were deposited. Exposures started in the morning between 8 and 10 am (that is two hours after lights were on) and mice were killed and dissected between 1 and 3 pm. […]
as §4, §5
(§9) Adult C57BL/6 mice were exposed to 5% ethyl isobutyrate for 5 hours, and the level of transcripts of odorant receptors' genes were measured by RT-qPCR on extracts of olfactory epithelia from these mice, as described in the materials and methods section.

[12] = tested on: control odorant receptor genes (8 genes); test: as above; design: species or system mouse; conditions: 5% odorant for 5 hours; margin of ±20% relative to control mice not significant
Experimental: as §1, §8, §4, §5, §9

Olfr167 [13] = biological target: T7, Olfr167 (Mus musculus, UniProt Q8VGJ5); test: OR transcripts by qPCR after ex vivo exposure of olfactory epithelia; format: cell-based; conditions: 50 μM, 2 hours, olfactory epithelia in vitro in ACSF medium
T7 construct: from tissue; host or cells: main olfactory epithelium of C57BL/6 mice (in vivo exposure) or explanted mouse olfactory epithelia (ex vivo)
T7 sequence (Q8VGJ5 1-312): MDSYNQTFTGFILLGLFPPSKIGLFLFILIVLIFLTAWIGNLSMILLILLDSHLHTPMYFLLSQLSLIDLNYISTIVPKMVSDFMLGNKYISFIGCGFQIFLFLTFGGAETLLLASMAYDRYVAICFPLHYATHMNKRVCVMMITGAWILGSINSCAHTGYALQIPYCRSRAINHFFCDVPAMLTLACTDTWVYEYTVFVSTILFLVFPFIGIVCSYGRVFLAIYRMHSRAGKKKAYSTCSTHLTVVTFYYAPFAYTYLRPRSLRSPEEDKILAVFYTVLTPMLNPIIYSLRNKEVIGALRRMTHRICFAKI
Experimental: (§10) In vitro exposure to odorant: The olfactory sensory mucosa of a live or recently dead vertebrate is collected and maintained alive in vitro. Sensory neurons are either left untouched or are dissociated. The exposure to the odorants is then performed in vitro, in a tube, in the liquid phase. The explants/neurons are kept alive in a physiological medium (such as 145 mM NaCl, 5 mM KCl, 1 mM CaCl2, 1 mM MgCl2, 10 mM HEPES, 10 mM glucose). […] The potential modulations of mRNA levels between the two populations are then evaluated, by qPCR (FIG. 2), RNAseq or other techniques, to identify the receptors that have been activated.
(§11) Mouse olfactory epithelia were collected and kept in vitro in ACSF medium where they were exposed for 2 hours to 50 μM ethyl isobutyrate. The number of transcripts for Olfr genes was then evaluated by qPCR, and those of Olfr167 and Olfr171 were both repressed after agonist exposure. Ethyl isobutyrate was previously shown to be an agonist for Olfr167 and Olfr171.

Olfr167 [14] = biological target: T7, Olfr167; test: OR transcript level by RT-qPCR after in vivo odorant exposure; conditions: 5% odorant for 5 hours, sensory neuroepithelium, n=7 mice
Experimental: as §1, §8, §4, §5, §9

Olfr167 [15] = biological target: T7, Olfr167; conditions: cited from earlier work
Olfr171 [16] = test: OR transcripts by qPCR after ex vivo exposure of olfactory epithelia; format: cell-based, Mouse; conditions: 50 μM, 2 hours, olfactory epithelia in vitro in ACSF medium
Experimental: as §10, §11

[17] = tested on: neurons expressing Olfr145; test: pS6 immunolabeling with OR in situ hybridization after odorant exposure; format: in vivo, mouse; conditions: 5% odorant, 60 minutes, in vivo
Experimental: (§12) In order to independently validate the identity of an acetophenone receptor obtained with the RNAseq approach, the potential colocalization following acetophenone exposure of a neuronal activity marker (the phosphorylated ribosomal protein S6 (pS6) (Knight et al., 2012, Cell, 151, 1126-1137) and specific olfactory receptors were evaluated. To this aim, in-situ hybridizations were performed on sections of olfactory tissue with probes targeting receptor mRNAs followed by immunolabeling of pS6. The probes used were directed against the transcripts of most of the ORs determined as responsive including Olfr983 transcripts (encoding a known acetophenone receptor), Olfr171 transcripts (encoding a known ethyl isobutyrate receptor), and Olfr145 transcripts, encoding a newly identified receptor by RNAseq. Before analysis, mice were exposed to either 5% acetophenone, 5% ethyl isobutyrate, or a negative control condition for 60 minutes. […] 66% (Olfr983) and 70% (Olfr145) of the neurons were positive for pS6 after acetophenone exposure, while only 11% of the neurons expressing Olfr171 were positive for pS6 after exposure to this compound.

[18] = tested on: neurons expressing Olfr983; test: as above; format: in vivo, mouse; conditions: 5% odorant, 60 minutes, in vivo
Experimental: as §12

Olfr171 [19] = conditions: cited from earlier work
[20] = tested on: Olfr171-expressing neurons; test: pS6 immunolabeling with OR in situ hybridization after odorant exposure; design: species or system mouse; conditions: 5% odorant, 60 minutes, in vivo
Experimental: as §12

T1 sequence (Q9QWU6 1-327): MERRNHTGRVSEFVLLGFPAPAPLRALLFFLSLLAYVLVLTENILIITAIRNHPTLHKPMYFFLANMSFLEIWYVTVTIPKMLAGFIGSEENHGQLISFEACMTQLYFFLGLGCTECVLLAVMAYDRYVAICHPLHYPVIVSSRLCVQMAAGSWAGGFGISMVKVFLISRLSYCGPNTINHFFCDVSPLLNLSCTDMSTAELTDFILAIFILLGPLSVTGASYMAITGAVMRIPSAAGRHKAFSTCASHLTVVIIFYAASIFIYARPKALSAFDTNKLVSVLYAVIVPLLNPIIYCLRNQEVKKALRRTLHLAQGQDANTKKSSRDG
T3 sequence (Q5QD16 whole entry): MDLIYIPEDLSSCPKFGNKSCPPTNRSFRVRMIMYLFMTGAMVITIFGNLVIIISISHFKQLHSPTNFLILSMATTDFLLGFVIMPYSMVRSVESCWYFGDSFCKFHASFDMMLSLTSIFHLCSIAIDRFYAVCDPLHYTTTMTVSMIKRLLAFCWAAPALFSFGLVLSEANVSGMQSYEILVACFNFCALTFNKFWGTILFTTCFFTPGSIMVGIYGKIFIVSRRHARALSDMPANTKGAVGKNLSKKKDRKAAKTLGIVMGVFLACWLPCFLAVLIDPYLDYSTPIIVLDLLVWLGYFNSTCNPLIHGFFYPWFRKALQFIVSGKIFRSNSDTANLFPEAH
T2 sequence (Q62007 whole entry): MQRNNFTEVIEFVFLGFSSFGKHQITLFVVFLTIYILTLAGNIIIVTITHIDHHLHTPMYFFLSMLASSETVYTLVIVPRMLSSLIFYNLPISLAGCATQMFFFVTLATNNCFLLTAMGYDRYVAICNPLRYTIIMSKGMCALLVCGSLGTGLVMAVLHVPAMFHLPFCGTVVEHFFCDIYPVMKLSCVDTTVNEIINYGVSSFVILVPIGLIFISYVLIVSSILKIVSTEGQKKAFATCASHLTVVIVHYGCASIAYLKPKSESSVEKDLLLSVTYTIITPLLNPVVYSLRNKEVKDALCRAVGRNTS
T4 sequence (Q5QD15 whole entry): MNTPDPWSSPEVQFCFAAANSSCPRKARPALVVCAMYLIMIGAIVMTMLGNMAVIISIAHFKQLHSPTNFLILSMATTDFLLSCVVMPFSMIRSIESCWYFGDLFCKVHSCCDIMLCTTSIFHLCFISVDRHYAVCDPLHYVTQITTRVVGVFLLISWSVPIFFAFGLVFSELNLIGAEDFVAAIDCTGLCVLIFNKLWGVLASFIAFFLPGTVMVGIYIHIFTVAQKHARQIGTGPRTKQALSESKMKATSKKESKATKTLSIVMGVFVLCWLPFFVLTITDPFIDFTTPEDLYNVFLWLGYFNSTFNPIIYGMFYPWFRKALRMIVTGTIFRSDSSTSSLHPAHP
T5 sequence (Q5QD13 whole entry): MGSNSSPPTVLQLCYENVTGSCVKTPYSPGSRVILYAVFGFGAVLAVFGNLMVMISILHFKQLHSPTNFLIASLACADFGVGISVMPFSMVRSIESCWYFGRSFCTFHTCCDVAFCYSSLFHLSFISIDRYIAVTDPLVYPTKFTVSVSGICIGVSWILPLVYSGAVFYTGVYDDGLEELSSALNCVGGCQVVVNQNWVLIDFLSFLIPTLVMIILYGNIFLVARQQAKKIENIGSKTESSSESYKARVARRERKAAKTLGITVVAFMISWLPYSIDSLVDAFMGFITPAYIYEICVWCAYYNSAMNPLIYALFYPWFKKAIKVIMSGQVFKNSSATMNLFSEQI

COc1cc(C(=O)O)ccc1O [vanillic acid]
Olfr609 mRNA level relative to unexposed controls (Olfr609 [1]): decrease | EC50 (Olfr609 [2]): < 50 µM

CCCCCCC=O [heptanal]
EC50 (Olfr2 [3]): < 50 µM | Olfr2 mRNA level relative to unexposed controls (Olfr2 [4]): decrease

CC(C)(O)CCCC1=CCC(C=O)CC1 (stereo not shown) [lyral]
EC50 (Olfr16 [5]): < 50 µM | Olfr16 mRNA level relative to unexposed controls (Olfr16 [6]): decrease

NCCc1ccccc1 [beta-phenylethylamine]
TAAR3 response previously shown (TAAR3 [7]): respond | TAAR4 response previously shown (TAAR4 [8]): respond | TAAR6 transcript level (negative control) (TAAR6): not affected | number of transcripts encoding TAAR4 (TAAR4 [9]): decrease | number of transcripts encoding TAAR3 (TAAR3 [10]): decrease | Olfr556 transcript level (negative control) (Olfr556): not affected

CCOC(=O)C(C)C [ethyl isobutyrate]
mRNA concentration of Olfr171, decreased, relative to unexposed controls (Olfr171 [11]): 74% | concentration of control odorant receptor gene transcripts [12]: none of the control odorant receptor genes (8 genes) was significantly affected | number of Olfr167 transcripts after agonist exposure (Olfr167 [13]): repressed | mRNA concentration of Olfr167, decreased, relative to unexposed controls (Olfr167 [14]): 47% | action on Olfr167 previously shown (Olfr167 [15]): agonist | number of Olfr171 transcripts after agonist exposure (Olfr171 [16]): repressed | fraction of Olfr145-expressing neurons positive for pS6 [17]: 28% | fraction of Olfr983-expressing neurons positive for pS6 [18]: 12% | action on Olfr171 previously shown (Olfr171 [19]): agonist | fraction of Olfr171-expressing neurons positive for pS6 [20]: 67%
